# Laboratory results taken from patent US11702422B2, “Imidazopyridazines as modulators of IL-17” (Janssen Pharmaceutica NV, priority 2020, dated 2023).
# Experiments:
# [1] = molecular target: IL-17A(FLAG-Tagged): IL-17RA(His-Tagged) (Homo sapiens, UniProt Q16552, K93Q); assay: IL-17A(FLAG-Tagged): IL-17RA(His-Tagged) Binding Disruption Eu-HTRF Assay; conditions: IL-17A/IL-17RA binding disruption, simple average if tested more than once
# Procedure, shortened: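 IC50 comes from a one-site competition fit of the HTRF 665/620 nm ratio. Compound dilutions (2-fold, 22 points) were held 1 h rt with FLAG-tagged IL-17A dimer, then His-tagged IL-17RA plus Eu-cryptate anti-FLAG and D2 anti-His antibodies were added for 2 h rt.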
# [2] = tested on: IL-17A-induced G-CSF production in human normal keratinocyte (NHK); assay: NHK Assay: IL-17A-induced G-CSF production in human normal keratinocytes; type: cell-based; conditions: 24 h, adult normal human keratinocytes, IL-17A 5 ng/mL, simple average if tested more than once
# Procedure, shortened: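 IL-17A (5 ng/mL final) was pre-incubated 1 h at rt with titrated compound and then added to adult normal human keratinocytes (5% FBS, 0.2% DMSO) for 24 h at 37° C. Supernatant G-CSF was measured by HTRF against a standard curve to derive IC50. Viability was checked by CellTiter-Glo.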
# Sequence of UniProt Q16552 (Q16552 with tags, fused parts or gaps K93Q): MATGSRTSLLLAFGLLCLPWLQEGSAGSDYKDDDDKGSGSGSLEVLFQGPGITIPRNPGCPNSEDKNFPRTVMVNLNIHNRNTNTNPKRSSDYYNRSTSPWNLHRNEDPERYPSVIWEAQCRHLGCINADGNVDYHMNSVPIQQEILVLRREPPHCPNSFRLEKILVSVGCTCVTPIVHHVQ
SMILES,IC50 [1] [µM],"IC50 ([2]; Homo sapiens, Keratinocyte) [µM]",IC50 [2] [µM]
"CC(C)c1ccsc1C(=O)N[C@H](c1cn2ncc([C@H](NC(=O)CCC(F)(F)F)C3CC3)cc2n1)C1CCC(F)(F)CC1 [Example 463, N—((S)-(7-((R)-Cyclopropyl(4,4,4-trifluorobutanamido)methyl)imidazo[1,2-b]pyridazin-2-yl)(4,4-difluorocyclohexyl)methyl)-3-isopropylthiophene-2-carboxamide]",0.094,0.38,–
"Cc1nonc1C(=O)N[C@H](c1cn2ncc([C@H](NC(=O)[C@H](F)[C@@H](C)C(F)(F)F)C3CC3)cc2n1)C1CCC(F)(F)CC1 (relative stereo) [Example 352, N—((S)-(7-((R)-Cyclopropyl((2R*,3R*)-2,4,4,4-tetrafluoro-3-methylbutanamido)methyl)imidazo[1,2-b]pyridazin-2-yl)(4,4-difluorocyclohexyl)methyl)-4-methyl-1,2,5-oxadiazole-3-carboxamide]",0.12,0.19,–
"O=C(CCC(F)(F)F)NC(c1cnn2cc([C@@H](NC(=O)c3cnnn3CCC(F)(F)F)C3CCC(F)(F)CC3)nc2c1)C1CC1 (single isomer, unassigned) [Example 71, N—((S)-(7-((R*)-Cyclopropyl(4,4,4-trifluorobutanamido)methyl)imidazo[1,2-b]pyridazin-2-yl)(4,4-difluorocyclohexyl)methyl)-1-(3,3,3-trifluoropropyl)-1H-1,2,3-triazole-5-carboxamide]",0.1,0.18,–
"N#CC1([C@@H](NC(=O)CC2CC(F)(F)C2)c2cnn3cc([C@@H](NC(=O)c4nonc4C4CC4)C4CCC(F)(F)CC4)nc3c2)CCC1 [Example 487, N—((S)-(7-((S)-(1-Cyanocyclobutyl)(2-(3,3-difluorocyclobutyl)acetamido)methyl)imidazo[1,2-b]pyridazin-2-yl)(4,4-difluorocyclohexyl)methyl)-4-cyclopropyl-1,2,5-oxadiazole-3-carboxamide]",0.045,0.006,–
"CC(C)n1nccc1C(=O)N[C@H](c1cn2ncc([C@H](NC(=O)C[C@](C)(O)C(F)(F)F)C3CC3)cc2n1)C1CCC(F)(F)CC1 (relative stereo) [Example 133, N—((S)-(7-((R*)-Cyclopropyl((S*)-4,4,4-trifluoro-3-hydroxy-3-methylbutanamido)methyl)imidazo[1,2-b]pyridazin-2-yl)(4,4-difluorocyclohexyl)methyl)-1-isopropyl-1H-pyrazole-5-carboxamide]",0.15,0.36,–

# More lines, in order of falling IC50 [1], values ahead:
IC50 [1] [µM],SMILES,"IC50 ([2]; Homo sapiens, Keratinocyte) [µM]",IC50 [2] [µM]
1.9,"Cc1nonc1C(=O)N[C@H](c1cn2ncc(C(NC(=O)CCC(F)(F)F)C(F)F)cc2n1)C1CCC(F)(F)CC1 (single isomer, unassigned) [Example 516, N—((S)-(7-((R*)-2,2-Difluoro-1-(4,4,4-trifluorobutanamido)ethyl)imidazo[1,2-b]pyridazin-2-yl)(4,4-difluorocyclohexyl)methyl)-4-methyl-1,2,5-oxadiazole-3-carboxamide]",–,> 20
0.24,"O=C(CCC(F)(F)F)N[C@@H](c1cnn2cc([C@@H](NC(=O)C3CC34CCC4)C3CCC(F)(F)CC3)nc2c1)C1CC1 (stereo partly drawn) [Example 45, N—((S)-(7-((R)-Cyclopropyl(4,4,4-trifluorobutanamido)methyl)imidazo[1,2-b]pyridazin-2-yl)(4,4-difluorocyclohexyl)methyl)spiro[2.3]hexane-1-carboxamide]",0.71,–
0.078,"O=C(CC1CC(F)(F)C1)NC(c1cnn2cc([C@@H](NC(=O)c3cnnn3CCC(F)(F)F)C3CCC(F)(F)CC3)nc2c1)C1CC1 (single isomer, unassigned) [Example 72, N—((S)-(7-((S*)-Cyclopropyl(2-(3,3-difluorocyclobutyl)acetamido)methyl)imidazo[1,2-b]pyridazin-2-yl)(4,4-difluorocyclohexyl)methyl)-1-(3,3,3-trifluoropropyl)-1H-1,2,3-triazole-5-carboxamide]",–,0.086
